Active and inactive are the calls of the source.
Tests used:
[1] = target: T1, Replicative DNA helicase DnaB (Mycobacterium tuberculosis, UniProt P9WMR3); experiment: DnaB intein splicing inhibitors, dose response, biochemical, cell-free fluorescence (AID 449749); assay type: functional
T1 sequence (P9WMR3 whole entry): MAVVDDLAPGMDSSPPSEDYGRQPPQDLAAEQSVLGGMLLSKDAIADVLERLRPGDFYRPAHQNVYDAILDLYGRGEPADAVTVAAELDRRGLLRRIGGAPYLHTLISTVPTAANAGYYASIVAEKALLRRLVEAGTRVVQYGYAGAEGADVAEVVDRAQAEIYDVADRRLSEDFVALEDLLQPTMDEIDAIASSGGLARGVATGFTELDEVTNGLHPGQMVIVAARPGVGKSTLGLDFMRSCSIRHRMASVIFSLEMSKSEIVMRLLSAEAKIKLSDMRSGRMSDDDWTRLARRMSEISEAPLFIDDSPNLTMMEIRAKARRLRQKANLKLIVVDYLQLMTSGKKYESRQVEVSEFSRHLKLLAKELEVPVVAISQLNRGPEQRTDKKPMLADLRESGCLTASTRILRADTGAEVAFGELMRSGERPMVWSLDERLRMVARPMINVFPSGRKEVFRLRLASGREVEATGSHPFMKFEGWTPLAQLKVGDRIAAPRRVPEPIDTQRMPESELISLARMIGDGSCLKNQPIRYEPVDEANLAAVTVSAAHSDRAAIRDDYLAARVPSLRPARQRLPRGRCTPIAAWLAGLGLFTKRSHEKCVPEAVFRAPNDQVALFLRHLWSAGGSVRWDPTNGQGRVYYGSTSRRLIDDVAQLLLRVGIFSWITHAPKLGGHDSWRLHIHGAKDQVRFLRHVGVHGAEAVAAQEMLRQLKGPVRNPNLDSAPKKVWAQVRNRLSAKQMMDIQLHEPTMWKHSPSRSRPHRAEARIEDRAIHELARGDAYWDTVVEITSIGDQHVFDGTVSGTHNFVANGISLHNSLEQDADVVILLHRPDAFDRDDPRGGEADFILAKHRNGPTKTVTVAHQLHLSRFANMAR

Fatty acid synthase [2] = target: T2, Fatty acid synthase (Homo sapiens, UniProt P49327); experiment: inhibition of human FAS-TE enzyme activity – biochemical, kinetic fluorescence intensity, dose response (AID 624326); assay type: functional;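 further: rate of fluorescence rise from hydrolysis of a fluorogenic O-methyl fluorescein ester substrate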
Fatty acid synthase [3] = target: T2, Fatty acid synthase; experiment: inhibition of human FAS-TE enzyme activity – biochemical, endpoint fluorescence intensity, uHTS hits, dose response (AID 624327); assay type: functional;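 further: fluorescence from hydrolysis of an O-methyl fluorescein acyl ester substrate by the enzyme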
Protein RecA = target: T3, Protein RecA (Mycobacterium tuberculosis, UniProt P9WHJ3); experiment: Fluorescence Cell-Free Homogeneous Dose Retest to Identify Inhibitors of RecA-Intein Splicing Activity. [Related pubchem assays (depositor defined):AID2097, AID2223, AID489010, AID492950]; assay type: functional
T3 sequence (P9WHJ3 whole entry): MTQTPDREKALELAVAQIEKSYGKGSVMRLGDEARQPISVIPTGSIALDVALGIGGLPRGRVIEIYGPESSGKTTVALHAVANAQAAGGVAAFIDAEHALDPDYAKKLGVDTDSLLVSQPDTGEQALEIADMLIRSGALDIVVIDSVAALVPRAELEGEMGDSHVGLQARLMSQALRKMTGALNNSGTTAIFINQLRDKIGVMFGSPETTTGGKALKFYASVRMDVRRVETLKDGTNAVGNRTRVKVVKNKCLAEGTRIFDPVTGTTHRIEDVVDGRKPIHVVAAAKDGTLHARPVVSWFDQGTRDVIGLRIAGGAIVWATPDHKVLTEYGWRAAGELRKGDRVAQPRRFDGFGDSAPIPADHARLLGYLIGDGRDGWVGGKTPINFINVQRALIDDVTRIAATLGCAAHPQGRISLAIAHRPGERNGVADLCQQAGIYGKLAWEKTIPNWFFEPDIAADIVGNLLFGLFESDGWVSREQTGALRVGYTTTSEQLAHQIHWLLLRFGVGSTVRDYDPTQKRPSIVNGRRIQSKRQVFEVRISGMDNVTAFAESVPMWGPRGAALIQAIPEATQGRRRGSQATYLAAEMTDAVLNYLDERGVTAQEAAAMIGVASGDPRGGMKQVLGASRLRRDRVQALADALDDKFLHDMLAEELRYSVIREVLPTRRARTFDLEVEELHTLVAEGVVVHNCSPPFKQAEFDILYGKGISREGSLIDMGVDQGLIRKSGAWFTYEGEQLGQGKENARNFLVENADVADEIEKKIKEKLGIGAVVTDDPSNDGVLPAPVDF

Caspase-3 = target: T4, Caspase-3 (Homo sapiens, UniProt P42574); assay type: functional;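 further: Dose-response selectivity test against caspase-3 for candidate inhibitors of sentrin-specific proteases (SENPs)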
T4 sequence (P42574 whole entry): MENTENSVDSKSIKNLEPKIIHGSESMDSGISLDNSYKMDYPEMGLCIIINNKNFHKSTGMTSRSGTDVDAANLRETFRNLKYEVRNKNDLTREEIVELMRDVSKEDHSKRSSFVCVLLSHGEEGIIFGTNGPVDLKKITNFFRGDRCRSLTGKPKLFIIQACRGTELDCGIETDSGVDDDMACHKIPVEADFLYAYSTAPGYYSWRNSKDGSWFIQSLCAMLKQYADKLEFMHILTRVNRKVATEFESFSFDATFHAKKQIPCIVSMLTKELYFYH

[4] = target: T5, Sentrin-specific protease 6 (Homo sapiens, UniProt Q9GZR1); assay type: functional;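 further: Luminescence-based dose-response confirmatory assay of SENP6 inhibition, following up an ultra-high-throughput screen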
T5 sequence (Q9GZR1 whole entry): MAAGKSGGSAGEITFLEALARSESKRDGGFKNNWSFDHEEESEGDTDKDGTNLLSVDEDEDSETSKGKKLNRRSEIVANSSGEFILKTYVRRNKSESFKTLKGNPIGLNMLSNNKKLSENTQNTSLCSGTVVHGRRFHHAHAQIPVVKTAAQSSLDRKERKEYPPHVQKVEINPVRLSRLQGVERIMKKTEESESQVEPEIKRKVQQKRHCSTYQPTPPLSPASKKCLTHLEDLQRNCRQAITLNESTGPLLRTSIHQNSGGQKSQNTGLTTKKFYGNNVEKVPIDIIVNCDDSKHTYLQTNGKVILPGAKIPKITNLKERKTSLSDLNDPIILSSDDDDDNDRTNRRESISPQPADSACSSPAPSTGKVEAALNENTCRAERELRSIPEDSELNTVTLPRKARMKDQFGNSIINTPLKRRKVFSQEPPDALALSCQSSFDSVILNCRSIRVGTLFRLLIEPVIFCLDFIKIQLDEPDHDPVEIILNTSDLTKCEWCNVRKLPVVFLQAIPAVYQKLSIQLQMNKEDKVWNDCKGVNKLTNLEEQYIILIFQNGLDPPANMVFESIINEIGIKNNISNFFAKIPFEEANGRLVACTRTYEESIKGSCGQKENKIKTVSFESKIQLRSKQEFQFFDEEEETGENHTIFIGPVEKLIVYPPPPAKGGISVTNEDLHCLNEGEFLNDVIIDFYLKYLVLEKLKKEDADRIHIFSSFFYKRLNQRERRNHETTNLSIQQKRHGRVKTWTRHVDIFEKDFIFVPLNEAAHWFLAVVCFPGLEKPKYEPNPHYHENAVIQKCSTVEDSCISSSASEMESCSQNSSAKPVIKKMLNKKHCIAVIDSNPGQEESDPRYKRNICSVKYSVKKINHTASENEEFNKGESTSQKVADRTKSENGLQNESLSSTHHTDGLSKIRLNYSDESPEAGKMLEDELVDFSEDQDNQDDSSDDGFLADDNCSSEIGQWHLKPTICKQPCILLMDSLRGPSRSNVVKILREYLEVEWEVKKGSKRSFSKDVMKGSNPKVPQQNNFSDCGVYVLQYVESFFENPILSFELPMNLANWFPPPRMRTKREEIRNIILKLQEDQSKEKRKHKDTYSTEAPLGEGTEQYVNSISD

[5] = target: T6, Sentrin-specific protease 7 (Homo sapiens, UniProt Q9BQF6); assay type: functional;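 further: Luminescence-based dose-response confirmation of ultra-high-throughput screening hits, measuring inhibition of SENP7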
T6 sequence (Q9BQF6 whole entry): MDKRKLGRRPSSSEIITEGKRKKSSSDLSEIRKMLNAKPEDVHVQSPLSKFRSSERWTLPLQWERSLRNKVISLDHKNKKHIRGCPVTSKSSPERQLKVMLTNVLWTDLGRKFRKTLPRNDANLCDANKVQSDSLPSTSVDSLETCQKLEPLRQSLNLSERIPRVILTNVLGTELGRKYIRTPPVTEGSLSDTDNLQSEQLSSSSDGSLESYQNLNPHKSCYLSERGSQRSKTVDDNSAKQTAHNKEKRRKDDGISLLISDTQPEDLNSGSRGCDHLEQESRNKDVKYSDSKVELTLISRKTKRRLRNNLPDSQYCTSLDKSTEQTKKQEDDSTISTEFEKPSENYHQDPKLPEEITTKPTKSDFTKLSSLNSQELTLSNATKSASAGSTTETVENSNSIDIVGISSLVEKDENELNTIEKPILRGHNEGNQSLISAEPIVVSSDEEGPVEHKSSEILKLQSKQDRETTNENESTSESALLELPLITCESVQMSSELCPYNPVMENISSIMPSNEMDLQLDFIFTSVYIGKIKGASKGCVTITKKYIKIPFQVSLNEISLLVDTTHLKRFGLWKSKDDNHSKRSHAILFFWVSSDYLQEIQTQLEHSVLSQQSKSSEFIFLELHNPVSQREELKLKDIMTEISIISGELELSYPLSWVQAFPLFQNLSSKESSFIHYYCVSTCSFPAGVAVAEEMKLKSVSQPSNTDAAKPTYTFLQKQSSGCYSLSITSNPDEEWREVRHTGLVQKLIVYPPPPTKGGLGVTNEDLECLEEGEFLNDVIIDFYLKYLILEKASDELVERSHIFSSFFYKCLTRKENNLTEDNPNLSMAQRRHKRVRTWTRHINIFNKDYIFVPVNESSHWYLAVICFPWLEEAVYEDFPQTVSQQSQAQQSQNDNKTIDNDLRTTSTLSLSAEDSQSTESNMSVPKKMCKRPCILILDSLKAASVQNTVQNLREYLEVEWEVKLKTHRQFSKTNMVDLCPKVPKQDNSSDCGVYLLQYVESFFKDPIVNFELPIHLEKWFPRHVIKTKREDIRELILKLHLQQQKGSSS

[6] = target: T7, Sentrin-specific protease 8 (Homo sapiens, UniProt Q96LD8); assay type: functional;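 further: luminescence read-out of SENP8 inhibition, dose-response confirmation following an ultra-high-throughput screen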
T7 sequence (Q96LD8 whole entry): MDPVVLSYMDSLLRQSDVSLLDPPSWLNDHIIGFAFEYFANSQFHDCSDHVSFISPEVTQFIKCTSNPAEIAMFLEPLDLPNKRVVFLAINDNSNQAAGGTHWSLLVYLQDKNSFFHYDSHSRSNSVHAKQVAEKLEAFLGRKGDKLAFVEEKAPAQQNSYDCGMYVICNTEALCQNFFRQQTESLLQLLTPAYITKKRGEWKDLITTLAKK

[7] = microbe, parasite or virus in culture; assay type: functional; conditions: Mycobacterium tuberculosis
[8] = target: T8, Polyadenylate-binding protein 1 (Homo sapiens, UniProt P11940); experiment: MLLE binding blockers, Cy5 peptide tracer – biochemical, fluorescence polarization, Cy5-PAM2 peptide, secondary, miRNA deadenylation inhibitor project, dose response (AID 602260); assay type: functional; conditions: read-out: IC50_Mean
[9] = target: T8, Polyadenylate-binding protein 1; experiment: MLLE domain peptide-binding blockers, IC50 – biochemical, fluorescence polarization, FITC-PAM2 peptide, dose response (AID 602259); assay type: functional; conditions: read-out: IC50_Mean
[10] = blockers of HIV-1 envelope-mediated cell-cell fusion – cherry-pick, dose response (AID 652057); assay type: functional, cell-based

T2 sequence (P49327 whole entry): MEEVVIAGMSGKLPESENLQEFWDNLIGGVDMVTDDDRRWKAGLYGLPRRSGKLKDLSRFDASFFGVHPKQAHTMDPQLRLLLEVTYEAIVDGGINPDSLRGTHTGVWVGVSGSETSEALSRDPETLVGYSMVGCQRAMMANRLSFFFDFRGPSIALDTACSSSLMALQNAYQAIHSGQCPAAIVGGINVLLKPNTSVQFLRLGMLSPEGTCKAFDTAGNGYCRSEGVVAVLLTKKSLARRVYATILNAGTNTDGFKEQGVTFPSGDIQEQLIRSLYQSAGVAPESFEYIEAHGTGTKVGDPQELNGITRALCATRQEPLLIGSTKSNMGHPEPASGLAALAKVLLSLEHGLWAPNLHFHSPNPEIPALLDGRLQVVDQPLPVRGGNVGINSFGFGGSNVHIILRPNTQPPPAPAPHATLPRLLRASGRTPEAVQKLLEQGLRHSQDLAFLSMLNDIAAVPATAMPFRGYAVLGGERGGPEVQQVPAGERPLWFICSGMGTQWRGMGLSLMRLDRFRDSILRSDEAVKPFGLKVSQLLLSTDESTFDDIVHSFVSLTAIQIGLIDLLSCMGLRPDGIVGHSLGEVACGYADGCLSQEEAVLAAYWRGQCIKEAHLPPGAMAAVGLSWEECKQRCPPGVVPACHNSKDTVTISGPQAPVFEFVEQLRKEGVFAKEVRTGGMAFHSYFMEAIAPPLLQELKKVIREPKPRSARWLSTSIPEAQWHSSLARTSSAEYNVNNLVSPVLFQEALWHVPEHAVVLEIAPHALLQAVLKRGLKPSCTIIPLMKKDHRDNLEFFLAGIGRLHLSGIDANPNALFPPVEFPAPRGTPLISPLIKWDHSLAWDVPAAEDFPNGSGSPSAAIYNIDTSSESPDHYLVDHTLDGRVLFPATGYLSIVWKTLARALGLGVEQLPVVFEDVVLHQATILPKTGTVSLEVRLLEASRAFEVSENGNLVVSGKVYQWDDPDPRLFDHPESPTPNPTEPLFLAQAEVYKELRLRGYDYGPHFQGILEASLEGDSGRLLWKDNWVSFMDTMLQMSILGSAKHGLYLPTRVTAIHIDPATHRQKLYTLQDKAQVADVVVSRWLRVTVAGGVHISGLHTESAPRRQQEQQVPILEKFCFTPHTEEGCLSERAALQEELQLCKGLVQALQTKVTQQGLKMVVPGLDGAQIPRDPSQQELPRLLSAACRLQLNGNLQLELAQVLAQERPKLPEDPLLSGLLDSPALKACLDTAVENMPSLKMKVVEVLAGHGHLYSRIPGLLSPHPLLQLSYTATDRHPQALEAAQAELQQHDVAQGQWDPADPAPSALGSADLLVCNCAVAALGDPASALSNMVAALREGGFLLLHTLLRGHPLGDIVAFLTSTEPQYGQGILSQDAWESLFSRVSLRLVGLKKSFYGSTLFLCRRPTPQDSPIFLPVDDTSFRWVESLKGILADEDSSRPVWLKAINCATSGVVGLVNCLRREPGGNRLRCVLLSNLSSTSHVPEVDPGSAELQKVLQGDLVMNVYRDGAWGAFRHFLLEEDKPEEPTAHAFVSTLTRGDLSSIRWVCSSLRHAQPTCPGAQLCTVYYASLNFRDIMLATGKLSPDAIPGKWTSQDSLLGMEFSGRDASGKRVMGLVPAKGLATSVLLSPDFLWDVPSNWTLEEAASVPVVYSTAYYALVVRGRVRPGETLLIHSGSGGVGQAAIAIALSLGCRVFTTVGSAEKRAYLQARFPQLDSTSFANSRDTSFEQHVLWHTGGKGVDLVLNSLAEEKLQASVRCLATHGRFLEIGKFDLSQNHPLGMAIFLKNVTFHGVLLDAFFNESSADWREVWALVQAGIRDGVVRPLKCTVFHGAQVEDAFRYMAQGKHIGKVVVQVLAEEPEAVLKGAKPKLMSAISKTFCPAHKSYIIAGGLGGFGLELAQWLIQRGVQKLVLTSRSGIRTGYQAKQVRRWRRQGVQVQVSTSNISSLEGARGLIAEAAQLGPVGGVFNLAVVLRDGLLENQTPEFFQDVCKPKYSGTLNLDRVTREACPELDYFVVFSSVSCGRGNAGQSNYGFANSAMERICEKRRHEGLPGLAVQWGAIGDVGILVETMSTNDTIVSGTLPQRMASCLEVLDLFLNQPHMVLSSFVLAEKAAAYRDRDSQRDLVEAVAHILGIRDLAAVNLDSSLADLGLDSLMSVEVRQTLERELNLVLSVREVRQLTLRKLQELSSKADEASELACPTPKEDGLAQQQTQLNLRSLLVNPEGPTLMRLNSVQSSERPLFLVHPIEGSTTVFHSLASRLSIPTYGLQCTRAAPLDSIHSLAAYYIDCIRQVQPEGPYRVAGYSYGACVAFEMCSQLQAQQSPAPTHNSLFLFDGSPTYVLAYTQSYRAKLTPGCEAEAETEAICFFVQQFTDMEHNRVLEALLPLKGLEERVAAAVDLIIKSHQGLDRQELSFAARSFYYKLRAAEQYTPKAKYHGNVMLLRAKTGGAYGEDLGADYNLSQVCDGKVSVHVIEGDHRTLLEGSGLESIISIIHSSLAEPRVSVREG
T8 sequence (P11940 whole entry, the tested form may be a part): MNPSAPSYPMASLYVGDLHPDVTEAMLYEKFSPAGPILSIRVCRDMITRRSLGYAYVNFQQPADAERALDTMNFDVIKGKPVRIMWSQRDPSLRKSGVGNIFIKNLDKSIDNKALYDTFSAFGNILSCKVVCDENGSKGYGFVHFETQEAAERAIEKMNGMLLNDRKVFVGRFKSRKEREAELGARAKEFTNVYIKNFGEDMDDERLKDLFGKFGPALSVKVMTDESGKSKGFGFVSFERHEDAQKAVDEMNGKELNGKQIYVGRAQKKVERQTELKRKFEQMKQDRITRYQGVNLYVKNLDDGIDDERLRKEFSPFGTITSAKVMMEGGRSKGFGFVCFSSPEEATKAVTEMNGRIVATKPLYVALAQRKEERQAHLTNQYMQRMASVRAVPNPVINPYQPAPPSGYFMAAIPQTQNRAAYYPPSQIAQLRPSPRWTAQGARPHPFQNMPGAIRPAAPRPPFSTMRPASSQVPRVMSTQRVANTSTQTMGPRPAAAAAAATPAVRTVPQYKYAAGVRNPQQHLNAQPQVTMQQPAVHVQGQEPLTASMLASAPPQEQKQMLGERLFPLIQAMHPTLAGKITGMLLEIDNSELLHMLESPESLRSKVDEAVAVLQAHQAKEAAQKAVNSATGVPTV

| Structure (SMILES) | IC50 (Caspase-3) | IC50 [4] | IC50 [5] | IC50 [6] | also measured |
| --- | --- | --- | --- | --- | --- |
| N#Cc1cc(-c2ccccc2)nc(Oc2ccccc2)n1 |  |  |  |  | AC50 [1]: 6.79 µM (active); IC50 (Fatty acid synthase [2]): 12.9 µM (active); IC50 (Fatty acid synthase [3]): 12.2 µM (active); EC50 (Protein RecA): 17.7 µM (active) |
| CN(CC(=O)Nc1ccc(Cl)cc1)C(=O)CNC(=O)c1ccc2ccccc2c1 | 26.4 µM (active) | > 100 µM (inactive) | 11.1 µM (active) | > 100 µM (inactive) |  |
| O=c1c2c3c(sc2nc(N2CCNCC2)n1-c1cccc(Cl)c1)CCCCC3 |  |  |  |  | CC50 [7]: 13.6 µM (active) |
| O=[N+]([O-])c1ccc(CSc2ccc(S(=O)(=O)N3CCOCC3)cn2)cc1 |  |  |  |  | IC50 [8]: > 66 µM (inactive); IC50 (Fatty acid synthase [2]): 4.09 µM (active); IC50 (Fatty acid synthase [3]): 13.4 µM (active); IC50 [9]: > 66 µM (inactive) |
| Cc1nc2ccc(NC(=O)c3cc(Cl)ccn3)cc2s1 | 3.79 µM (active) | 12.9 µM (active) | 3.62 µM (active) | 86.4 µM (active) |  |
| O=C(Nc1ccc(N2CCN(C(=O)c3ccco3)CC2)cc1)C(c1ccccc1)c1ccccc1 |  |  |  |  | CC50 [7]: > 40 µM (active) |
| O=C(COC(=O)c1ccc([N+](=O)[O-])s1)NC(=O)NCc1ccccc1 | 13.7 µM (active) | 4.59 µM (active) | 8.47 µM (active) | 4.28 µM (active) |  |
| Fc1ccccc1SCc1nnc(-c2ccccc2Br)o1 | 17.1 µM (active) | 12.1 µM (active) | 6.47 µM (active) | 14.7 µM (active) |  |
| Clc1nc(-c2ccccn2)nc2scc(-c3ccccc3)c12 | 7.37 µM (active) | 6.7 µM (active) | 3.74 µM (active) | 7.79 µM (active) |  |
| Oc1ccc(/C=C/c2ccnc3ccccc23)cc1 | 34.5 µM (active) | > 100 µM (inactive) | 9.49 µM (active) | > 100 µM (inactive) |  |
| C[C@H]1CN([C@@H](C)CO)C(=O)c2cccc(NS(=O)(=O)c3ccc(Cl)cc3)c2O[C@@H]1CN(C)Cc1ccc(C(F)(F)F)cc1 |  |  |  |  | AC50 [10]: 29 µM (active) |
| COc1ccc2c3c(n(C)c2c1)[C@@H](CO)N(C(=O)Nc1ccc(F)cc1)CC31CCN(Cc2cccc(F)c2)CC1 |  |  |  |  | AC50 [10]: < 0.26 µM (active) |
| COc1ccccc1N1CCN(/N=C/c2ccc([N+](=O)[O-])cc2)CC1 | 2.68 µM (active) | 3.64 µM (active) | 2.17 µM (active) | > 100 µM (inactive) |  |

From ChEMBL document CHEMBL1201862, “PubChem BioAssay data set” (2004)
